Key:
[1] = cited from earlier work
Description: (§1) Chemokines are small proteins that have two main interaction partners: chemokine receptors, which are G protein-coupled receptors (GPCRs), and GAGs. The binding of chemokines to GAGs enables the formation of a chemokine concentration gradient, which is indispensable for leukocyte migration. Interfering with the interactions between GAGs and chemokines can be a useful therapeutic strategy to inhibit inflammation. The chemokine CXCL9 binds to CXCR3 and is characterized by a highly positively charged COOH-terminal tail. A CXCL9-derived peptide, CXCL9(74-103), consisting ...

[2] = system: cellular GAGs on HS+ (pgsB-618 clone 19) and HS- (pgsB-618 clone 16) CHO cells; experiment: Binding of TAMRA-labeled peptides to cellular GAGs, flow cytometry; format: cell-based, Chinese hamster; conditions: 0.24 nmol TAMRA-labeled peptide; for Binding to HS+ CHO cells compared with HS- CHO cells (MFI): 1 × 10^5 cells, 30 min on ice, Wilcoxon test; for Binding capacity for cellular GAGs (MFI ([HS+]–[HS−])), comparison of the peptides: n ≥ 7, Mann–Whitney test
Procedure: The binding of four different TAMRA-labeled peptides (KKAK-2mer, KKQK-3mer, KKKQQK-2mer and CXCL9(74-103)) to cellular GAGs on pgsB-618 clone 16 (HS^− CHO cells) and pgsB-618 clone 19 cells (HS^+ CHO cells) was assessed using flow cytometry. Since each peptide contains exactly one TAMRA-group connected to the N-terminus, this allows us to quantify the peptides by their fluorescence or absorbance.
(§2) First, the medium was discarded, the cells were washed with PBS and were detached with trypsin/EDTA at 37 °C. Subsequently, the cells were resuspended in medium and left at room temperature for 45 min, and afterwards on ice for 15 min. After centrifugation at 177 g and 4 °C for 7 min, the pellet was resuspended in PBS and the cells were kept on ice. For each condition, 1 × 10^5 cells in 100 μL PBS were used and 4.7% (v/v) FcR blocking reagent and 0.06% (v/v) Zombie Aqua fixable viability dye were added to the cells. Following incubation in the dark at room temperature for 20 min, a wash step with flow cytometry buffer was performed. Afterwards, 0.24 nmol TAMRA-labeled peptide was added to the cells. After incubation in the dark on ice for 30 min, a wash step with flow cytometry buffer was performed and, subsequently, the cells were fixed with 0.4% (v/v) formaldehyde in flow cytometry buffer and kept at 4 °C. Flow cytometric analysis was performed within the following 24 h using a BD LSRFortessa X-20 flow cytometer (BD Biosciences; Franklin Lakes, NJ, USA), and the results were analyzed using FlowJo software (BD Biosciences).
(§3) Flow cytometry data (Figure 7C and Figure S2) are represented as median. […] In the next step, either a Mann–Whitney test (for unpaired data) or a Wilcoxon test (for paired data) was used to compare the groups. Statistical analysis was performed using GraphPad Prism 8.3.0 software (GraphPad Software; San Diego, CA, USA).

[3] = system: CXCR3; conditions: cited from earlier work
Description: as §1

[4] = system: cellular GAGs on HS+ and HS- CHO cells; experiment: Binding of TAMRA-labeled peptides to cellular GAGs in the presence of added soluble GAGs, flow cytometry; format: cell-based, Chinese hamster; conditions: versus no GAG, Kruskal–Wallis test, n ≥ 6; for Effect of added soluble HA on binding of the peptide to cellular GAGs (MFI ([HS+]–[HS−])): 0.24 nmol peptide with 0.03-3 μg HA (70–120 kDa); for Effect of added soluble HS on binding of the peptide to cellular GAGs (MFI ([HS+]–[HS−])): 0.24 nmol peptide with 0.03-3 μg HS; for Effect of added soluble heparin on binding of the peptide to cellular GAGs (MFI ([HS+]–[HS−])): 0.24 nmol peptide with 0.03-3 μg heparin
Procedure: as §2
Similarly, the binding of three TAMRA-labeled peptides (KKQK-3mer, KKKQQK-2mer and CXCL9(74-103)) to cellular GAGs on pgsB-618 clone 16 (HS^− CHO cells) and pgsB-618 clone 19 cells (HS^+ CHO cells) in the presence of added GAGs was assessed using flow cytometry. In this experiment, different doses (0.03, 0.1, 0.3, 1 or 3 μg) of heparin (heparin low in calcium; Iduron; Cheshire, UK), HS (GAG HS01 BN1; Iduron; Cheshire, UK) or HA (70–120 kDa; HA sodium salt 96144; Sigma-Aldrich; St. Louis, MO, USA) were added to the cells, simultaneously with 0.24 nmol of TAMRA-labeled peptide (vide supra).
as §3

[5] = cited from earlier work; remark: listed apart in the source
Description: No significant difference in affinity for HS was detected between the long (KKKQQK) and short (KKQK) GAG-binding motifs (Figure 2). […] This is consistent with the report that peptides containing multiple copies of the GAG-binding motifs XBBXBX and XBBBXXBX had higher affinity for heparin [30]. It is important to point out that CXCL9(74-103) had the ...

Row | Compound | Binding to HS+ CHO cells compared with HS- CHO cells (MFI) [2] | Binding capacity for cellular GAGs (MFI ([HS+]–[HS−])), comparison of the peptides [2] | Effect of added soluble HA on binding of the peptide to cellular GAGs (MFI ([HS+]–[HS−])) [4] | Effect of added soluble HS on binding of the peptide to cellular GAGs (MFI ([HS+]–[HS−])) [4] | Effect of added soluble heparin on binding of the peptide to cellular GAGs (MFI ([HS+]–[HS−])) [4] | also measured
1 | CC(=O)NC(CCCNC(=N)N)C(N)=O (stereo not drawn) [acetyl-Arg-amide] |  |  |  |  |  | Tighter binding to heparin than the corresponding acetyl-Lys-amide [1]: approximately 2.5 times
2 | * KKAKASASKKAKTT [KKAK-2mer] | bound significantly better to HS^+ CHO cells | lowest |  |  |  | 
3 | * KKKQKNGKKHQKKKVLKVRKSQRSRQKKTT [CXCL9(74-103), chemokine-derived peptide, the 30 COOH-terminal amino acids of the chemokine CXCL9, TAMRA-labeled] | bound significantly better to HS^+ CHO cells | significantly higher (p < 0.0001) compared with that of the three other peptides | no significant differences | statistically significant reduction of binding | statistically significant reduction of binding | Binding to and signaling through CXCR3 [3]: lacks the capacity to bind to, and signal through, CXCR3
4 | * KKKQQKQSQSKKKQQKTT [KKKQQK-2mer] | bound significantly better to HS^+ CHO cells | significantly higher (p < 0.05) in comparison with the binding capacity of the KKAK-2mer | no significant differences | no significant differences | no significant differences | 
5 | * KKQKQSQSKKQKQSQSKKQKTT [KKQK-3mer] | bound significantly better to HS^+ CHO cells | significantly higher (p < 0.05) in comparison with the binding capacity of the KKAK-2mer | no significant differences | no significant differences | no significant differences | 
6 | AAARRARAAAARAKA [modified serglycin peptide in which Ala residues replaced all non-basic amino acids] |  |  |  |  |  | Decrease in heparin-binding affinity compared with native peptide YPARRARYQWVRCKP ([5]; Ala residues replaced all non-basic amino acids): 350 fold
7 | YPARRARYQWVRCKP |  |  |  |  |  | Heparin-binding affinity ([5]; fragment of native mouse serglycin core protein with BBXB motif): significant heparin-binding affinity
